Test results: patent US9737546B2, “Small molecules to enhance P53 activity” (THE REGENTS OF THE UNIVERSITY OF CALIFORNIA, priority 2013, dated 2017)

Tests used:
p53 cancer mutants = assay: p53-dependent cell killing (or proliferation arrest) in Saos-2 cells expressing p53 cancer mutants; type: cell-based, human
Method: FIG. 3C is a graph of dose response curves for compounds 33BAZ and 27UDP using four different p53 cancer mutants: R175H, G245S, R248W, and R273H. Experimental conditions are as in FIG. 3A.
FIG. 3D is a panel of graphs of broad spectrum activity for four other compounds using four different p53 cancer mutants: R175H, G245S, R248W, and R273H. Experimental conditions are as in FIG. 3C, but a single dose was assayed: 27VFS (20 μM), 35LWZ (50 μM), 27WT9 (10 μM), and 26RQZ (10 μM).
Our previous p53 reactivation assays focused on p53-driven expression of the canonical p53 target genes p21 and PUMA (Wassman et al., 2013). However, there is significant evidence that neither p21 nor PUMA expression predict p53 anti-tumor activity (Hock & Vousden, 2012; Li et al., 2012; Valente et al., 2013). Indeed, our results comparing effects of PRIMA-1 and stictic acid support this view. […] We now use p21 and PUMA expression as an independent transcription assay for p53 cancer mutant reactivation, but not the primary selection criterion. We changed to p53-dependent cell killing (or proliferation arrest) as our main measure of efficacy because our long-term goal is anti-tumor drugs. […]
(§1) Our primary screen is the p53 cancer mutant R175H, which is the single most prevalent human cancer mutation. Active compounds were re-evaluated using an independent cell line expressing a different p53 cancer mutant, G245S.

[1] = tested on: p53-dependent reporter expression (p21 and PUMA promoter elements); assay: p21 and PUMA expression / transcriptional reporter assay based on p21 and PUMA promoter elements; type: cell-based, human; details: comparison of stictic acid and PRIMA-1
From the text: Our previous p53 reactivation assays focused on p53-driven expression of the canonical p53 target genes p21 and PUMA (Wassman et al., 2013). However, there is significant evidence that neither p21 nor PUMA expression predict p53 anti-tumor activity (Hock & Vousden, 2012; Li et al., 2012; Valente et al., 2013). Indeed, our results comparing effects of PRIMA-1 and stictic acid support this view. […] We now use p21 and PUMA expression as an independent transcription assay for p53 cancer mutant reactivation, but not the primary selection criterion. We changed to p53-dependent cell killing (or proliferation arrest) as our main measure of efficacy because our long-term goal is anti-tumor drugs.
An independent test for p53 cancer mutant reactivation is the well-established transcriptional reporter assay based on p21 and PUMA promoter elements (Wassman, et al., 2013). As above, the magnitude of reactivated p53-dependent transcription is not considered relevant for a compound's potency in cancer cell killing.

p53 R175H = p53 R175H (Homo sapiens, UniProt P04637, R175H); details: cited from earlier work
[2] = tested on: parental Saos-2 (p53^null) cells; assay: Cell proliferation of parental Saos-2 (p53null) cells, CellTiter-Glo; type: cell-based; details: cultured 3 days, max. 200 μM, Zinc Leads Now compounds (FIG. 3A)
Method: FIG. 3A is a graph of reactivation activities of various compounds. Saos-2 cells expressing no p53 (p53^null), or expressing one of the cancer mutants p53-R175H or p53-G245S, were cultured for 3 days in the presence of different concentrations of compounds that had been selected from the Zinc Leads Now database, version of January, 2011, by the computational methods described below. The p53 reactivation compounds shown correspond to FIG. 1. Cell numbers were measured using the CellTiter-Glo® reagent. […] Data are presented as the standard error of the mean (n=3). Note that as of this writing eight compounds have been tested on the R175H mutant only (32CTM, 28NZ6, 27TGR, 27VFS, 35LWZ, 36EB5, 32LDE, and 32JCB).
FIG. 3B is a graph of reactivation activities of various compounds. Experimental conditions are as in FIG. 3A, but compounds were selected from the Chembridge Express Pick Library 2012 database, by the computational methods described below. The p53 reactivation compounds shown correspond to FIG. 2.
The basis for our primary assay is that cancer cells cannot tolerate active p53, stop proliferation, and eventually die. […]
as §1

[3] = target: T1, R175H-p53 with A124 (cysteine 124 to alanine) (Homo sapiens, UniProt P04637, C124A/R175H); assay: PRIMA-1 treatment of Saos-2 cells expressing R175H-p53 with cysteine 124 changed to alanine; type: cell-based; details: 50 μM pre-heated PRIMA-1, 72 h, Saos-2 cells (FIG. 5)
T1 construct: expressed in transfected cells; host or cells: Saos-2 (p53null) human osteosarcoma cells
Method: (§2) FIG. 5 is a graph showing that PRIMA-1 acts through cysteine 124 in p53. p53null Saos-2 cells expressing wild type p53, or the indicated p53 mutants, were treated with 50 μM pre-heated PRIMA-1 (“+”, left bar) or the medium without PRIMA-1 (DMSO, “−”, right bar) for 72 h. The increase in cell number during 72 h of growth is shown. Standard deviations represent 4 independent samples (Wassman, et al., 2013).
Although the region around residue C124 is enriched for cancer rescue mutations, changes in position 124 have never been found, nor were they predicted by our SVM classifier, to reactivate p53 cancer mutants. Indeed, directed saturation mutagenesis of position 124 in the context of the R175H p53 cancer mutation explored all single amino acid changes at C124 and confirmed the absence of any genetic mutation rescue activity at this position. We could therefore test the computer predictions for a role of C124 in covalent drug binding in vivo by changing C124 into alanine to prevent the hypothetical thiol-mediated link with MQ.
(§3) The increase in cell number during 72 h of growth is shown. As expected, the p53 cancer mutant R175H was activated by PRIMA-1. Mutating cysteine 124 to alanine blocked PRIMA-1 induced cancer mutant reactivation.

p53 cancer mutant R175H = target: T2, p53 cancer mutant R175H (Homo sapiens, UniProt P04637, R175H); assay: p53 reactivation assay (cell killing / proliferation arrest) in Saos-2 cells expressing p53 cancer mutant R175H; type: cell-based; details: 50 μM pre-heated PRIMA-1, 72 h, Saos-2 cells (FIG. 5)
T2 construct: expressed in transfected cells; host or cells: Saos-2 (p53null) human osteosarcoma cells
Method: as §2, §3
The basis for our primary assay is that cancer cells cannot tolerate active p53, stop proliferation, and eventually die. Expression of functional p53 in p53null Saos-2 osteosarcoma cells blocks their proliferation; expression of p53 cancer mutants has no effect (Wassman et al., 2013) (FIG. 5). Importantly, compounds that reactivate p53 cancer mutants specifically block proliferation of Saos-2 cells expressing p53 cancer mutants, but have no effect on growth of p53null cells at the same concentration (FIG. 3). […]
as §1

## COc1cc(C)c2c(c1C=O)Oc1c(c(C)c(O)c3c1C(O)OC3=O)OC2=O (centres unmarked) [stictic acid]
p53 cancer mutants; one of 45 screened NCI DTP compounds
  p53 reactivation in biological assays: proved to be a p53 reactivation compound
[1]
  restoring p21 and PUMA expression in p53 cancer mutants: significantly better than PRIMA-1

## C/C(=N\NC(=S)N1CCC1)c1ccccn1 [NSC319726]
p53 R175H
  allele specificity of p53 mutant reactivation: R175H allele-specific

## O=C1C2CCN(CC2)C1(CO)CO [PRIMA-1]
[2]
  highest compound concentration that did not significantly affect cell proliferation of the parental Saos-2 (p53null) cells: 50 µM
[3]
  PRIMA-1 effects after introduction of A124 in R175H-p53: completely eliminated
p53 cancer mutants; comparison of PRIMA-1 and stictic acid
  p53-dependent killing/arresting of cells: considerably more potent
p53 cancer mutant R175H
  effect on cells expressing the inactive R175H p53: reactivation and induction of cell death

## CC(=NNC(=S)N(C)C)c1ccccn1 [NSC319725]
p53 R175H
  allele specificity of p53 mutant reactivation: R175H allele-specific
